Here are results for 27 compounds from patent publication US11390609B2, “Rho-associated protein kinase inhibitor, pharmaceutical composition comprising same, and preparation method and use thereof” (BEIJING TIDE PHARMACEUTICAL CO., LTD., priority 2017, dated 2022).

For assay [1], the target named is ROCK2 (Homo sapiens, UniProt O75116). Kind of assay: ROCK2 kinase IC50 assay (CISBIO HTRF KinEASE-STK S2 kit). In kind it is biochemical. Conditions: incubated at room temperature for 2 hours. The method, boiled down: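 HTRF KinEASE-STK S2 format with recombinant ROCK2 (1.4 ng per well), STK-S2 substrate and ATP from 5× working solutions of 1.5 μM each, run 2 h at room temperature. Nine-point dilutions from 10000 nM top concentration; 665/615 nm emission ratio normalised to no-compound and no-kinase controls, curve-fitted for IC50.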

Assay [2] has as its target ROCK1 (Homo sapiens (Human), UniProt Q13464). In words: ROCK1 kinase IC50 assay (biological test method similar to the ROCK2 assay). In kind it is biochemical. The method, boiled down: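 HTRF KinEASE-STK S2 assay with the STK-S2 biotinylated substrate and ATP, at 5× working solutions of 1.5 µM each. Kinase reaction with 9-point compound dilutions ran 2 h at room temperature, followed by 1 h streptavidin-XL665/Cryptate detection. The 665/615 nm ratio was normalised to no-compound and no-kinase wells, and IC50 was obtained by curve fitting.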

Sequence of ROCK1 (Q13464 whole entry, species assumed): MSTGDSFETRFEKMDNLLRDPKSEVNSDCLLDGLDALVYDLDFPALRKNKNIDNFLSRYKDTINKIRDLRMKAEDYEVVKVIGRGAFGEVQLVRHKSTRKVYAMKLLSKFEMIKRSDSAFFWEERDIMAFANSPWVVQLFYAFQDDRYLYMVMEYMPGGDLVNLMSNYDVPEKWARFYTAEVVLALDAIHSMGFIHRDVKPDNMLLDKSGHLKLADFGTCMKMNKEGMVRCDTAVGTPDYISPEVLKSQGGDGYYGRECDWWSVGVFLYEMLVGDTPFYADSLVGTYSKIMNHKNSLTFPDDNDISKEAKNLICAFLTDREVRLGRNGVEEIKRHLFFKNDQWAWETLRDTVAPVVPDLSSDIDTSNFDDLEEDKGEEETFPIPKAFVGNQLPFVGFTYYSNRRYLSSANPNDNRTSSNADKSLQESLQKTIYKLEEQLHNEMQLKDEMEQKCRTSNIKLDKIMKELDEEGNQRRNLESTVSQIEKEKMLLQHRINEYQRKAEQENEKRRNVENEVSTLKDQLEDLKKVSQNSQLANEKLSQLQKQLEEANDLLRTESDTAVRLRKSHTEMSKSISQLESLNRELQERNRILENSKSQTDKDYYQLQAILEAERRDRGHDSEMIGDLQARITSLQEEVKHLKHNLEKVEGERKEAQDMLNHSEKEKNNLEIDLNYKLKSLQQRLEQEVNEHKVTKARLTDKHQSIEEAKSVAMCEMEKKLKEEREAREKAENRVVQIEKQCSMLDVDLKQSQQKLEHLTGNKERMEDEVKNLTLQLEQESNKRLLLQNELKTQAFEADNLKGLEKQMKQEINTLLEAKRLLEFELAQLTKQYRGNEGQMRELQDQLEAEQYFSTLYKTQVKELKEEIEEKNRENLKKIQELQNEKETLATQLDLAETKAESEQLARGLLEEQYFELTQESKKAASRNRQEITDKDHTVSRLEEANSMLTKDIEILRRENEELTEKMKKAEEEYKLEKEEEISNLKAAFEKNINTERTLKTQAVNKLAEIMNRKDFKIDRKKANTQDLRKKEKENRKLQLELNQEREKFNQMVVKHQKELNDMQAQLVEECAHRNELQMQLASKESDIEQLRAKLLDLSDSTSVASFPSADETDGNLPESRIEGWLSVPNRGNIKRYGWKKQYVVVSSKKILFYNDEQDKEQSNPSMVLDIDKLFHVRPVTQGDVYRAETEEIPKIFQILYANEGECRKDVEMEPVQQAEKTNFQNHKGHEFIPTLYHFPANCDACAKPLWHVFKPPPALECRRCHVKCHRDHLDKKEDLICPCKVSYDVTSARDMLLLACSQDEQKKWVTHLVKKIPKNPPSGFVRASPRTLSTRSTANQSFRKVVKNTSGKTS

As to `NC(=O)c1cnc(-c2ccc3c(c2)CN(C(=O)C2CC(F)(F)C2)C3)nc1Nc1ccc(-c2cn[nH]c2)cc1` [TDI01567, 4-((4-(1H-pyrazol-4-yl)phenyl)amino)-2-(2-(3,3-difluorocyclobutane-1-carbonyl)isoindolin-5-yl)pyrimidin-5-carboxamide], the IC50 in assay [1] was 65 nM; in assay [2] it was more than 10000 nM.

For `COCn1c(C(=O)N2CC(F)(F)C2)cc2ccc(-c3nccc(Nc4ccc(-c5cn[nH]c5)cc4)n3)cc21` [TDI01920, (6-(4-((4-(1H-pyrazol-4-yl)phenyl)amino)pyrimidin-2-yl)-1-(methoxymethyl)-1H-indol-2-yl)(3,3-difluoroazetidin-1-yl)methanone], the values for the IC50 in assay [1] and in assay [2] were 200 nM and more than 10000 nM, respectively.

For `Cn1c(C(=O)N2C[C@@H](F)[C@@H](F)C2)cc2ccc(-c3nccc(Nc4ccc(-c5cn[nH]c5)cc4)n3)cc21` [TDI01514, (6-(4-((4-(1H-pyrazol-4-yl)phenyl)amino)pyrimidin-2-yl)-1-methyl-1H-indol-2-yl) ((3S,4R)-3,4-difluoropyrrolidin-1-yl)methanone], the half-inhibitory concentration (IC50) in assay [1] is 49 nM; in assay [2], 2730 nM.

Turning to `CC1(C(=O)N2Cc3ccc(-c4ncc(F)c(Nc5ccc(-c6cn[nH]c6)cc5)n4)cc3C2)CC(F)(F)C1` [TDI01628, (5-(4-((4-(1H-pyrazol-4-yl)phenyl)amino)-5-fluoropyrimidin-2-yl)isoindolin-2-yl)(3,3-difluoro-1-methylcyclobutyl) methanone], the IC50 was 28 nM in assay [1] and more than 10000 nM in assay [2].

`O=C(c1cc2ccc(-c3nccc(Nc4ccc(-c5cn[nH]c5)cc4)n3)cc2[nH]1)N1CC(=NO)C1` [TDI01498, (6-(4-((4-(1H-pyrazol-4-yl)phenyl)amino)pyrimidin-2-yl)-1H-indol-2-yl)(3-(hydroxyimino)azetidin-1-yl)methanone]: the IC50 in assay [1] is 415 nM; in assay [2], more than 10000 nM.

Take `Cn1c(C(=O)N2CC3C(C2)C3(F)F)cc2ccc(-c3nccc(Nc4ccc(-c5cn[nH]c5)cc4)n3)cc21` (stereo not drawn) [TDI01512, (6-(4-((4-(1H-pyrazol-4-yl)phenyl)amino)pyrimidin-2yl)-1-methyl-1H-indol-2-yl)(6,6-difluoro-3-azabicyclo[3.1.0]hexan-3-yl)methanone]: the IC50 in assay [1] came out at 22 nM; in assay [2], 3630 nM.

For the compound `O=C(OC1CC(F)(F)C1)N1Cc2ccc(-c3nccc(Nc4ccc(-c5cn[nH]c5)cc4)n3)cc2C1` [TDI01562, 3,3-difluorocyclobutyl 5-(4-((4-(1H-pyrazol-4-yl)phenyl)amino)pyrimidin-2-yl)isoindoline-2-carboxylate], the IC50 in assay [1] is 23 nM; in assay [2], more than 10000 nM.

`O=C(c1cc2ccc(-c3nccc(Nc4ccc(-c5cn[nH]c5)cc4)n3)cc2[nH]1)N1CCC2(C1)CC2(F)F` (stereo not drawn) [TDI01486, (6-(4-((4-(1H-pyrazol-4-yl)phenyl)amino)pyrimidin-2-yl)-1H-indol-2-yl)(1,1-difluoro-5-azaspiro[2.4]heptan-5-yl)methanone]: the IC50 turned out to be 185 nM in assay [1] and 3000 nM in assay [2].

Turning to `CN1CCc2nc(C(=O)N3Cc4ccc(-c5nccc(Nc6ccc(-c7cn[nH]c7)cc6)n5)cc4C3)sc2C1` [TDI01973, (5-(4-((4-(1H-pyrazol-4-yl)phenyl)amino)pyrimidin-2-yl)isoindolin-2-yl)(5-methyl-4,5,6,7-tetrahydrothiazolo[5,4-c]pyridin-2-yl)methanone], the concentration for half-maximal inhibition (IC50) in assay [1] is 52 nM; in assay [2], more than 10000 nM.

For the compound `O=C(OC1CCNC1)N1Cc2ccc(-c3nccc(Nc4ccc(-c5cn[nH]c5)cc4)n3)cc2C1` (stereo not drawn) [TDI01551, pyrrolidin-3-yl 5-(4-((4-(1H-pyrazol-4-yl)phenyl)amino)pyrimidin-2-yl)isoindoline-2-carboxylate], the half-maximal inhibitory concentration (IC50) in assay [1] worked out at 31 nM; in assay [2], 1730 nM.

Regarding `O=C(N1CCN(C2COC2)CC1)N1Cc2ccc(-c3nccc(Nc4ccc(-c5cn[nH]c5)cc4)n3)cc2C1` [TDI01555, (5-(4-((4-(1H-pyrazol-4-yl)phenyl)amino)pyrimidin-2-yl)isoindolin-2-yl)(4-(oxetan-3-yl)piperazin-1-yl)methanone], the values for the 50% inhibitory concentration (IC50) in assay [1] and in assay [2] were 140 nM and more than 10000 nM, respectively.

For the compound `O=C(c1cc2ccc(-c3nccc(Nc4ccc(-c5cn[nH]c5)cc4)n3)cc2[nH]1)N1CCC(C(F)(F)F)C1` (stereo not drawn) [TDI01444, (6-(4-((4-(1H-pyrazol-4-yl)phenyl)amino)pyrimidin-2-yl)-1H-indol-2-yl)(3-(trifluoromethyl)pyrrolidin-1-yl)methanone], the concentration for half-maximal inhibition (IC50) in assay [1] is 32 nM; in assay [2], 8260 nM.

Take `Cn1c(C(=O)N2C[C@@H](O)[C@@H](F)C2)cc2ccc(-c3nccc(Nc4ccc(-c5cn[nH]c5)cc4)n3)cc21` [TDI01520, (6-(4-((4-(1H-pyrazol-4-yl)phenyl)amino)pyrimidin-2-yl)-1-methyl-1H-indol-2-yl)((3S,4R)-3-fluoro-4-hydroxypyrrolidin-1-yl)methanone]: the half-maximal inhibitory concentration (IC50) is 15 nM in assay [1] and more than 10000 nM in assay [2].

On to `Cn1c(-c2nccs2)cc2ccc(-c3nccc(Nc4ccc(-c5cn[nH]c5)cc4)n3)cc21` [TDI01919], for which the half-maximal inhibitory concentration (IC50) in assay [1] came to 62 nM; in assay [2], 4060 nM.

Regarding `Cn1c(C(=O)N2CC(F)(F)C2)cc2ccc(-c3nccc(Nc4ccc5[nH]ncc5c4)n3)cc21` [TDI01906, (6-(4-((1H-indazol-5-yl)amino)pyrimidin-2-yl)-1-methyl-1H-indol-2-yl)(3,3-difluoroazetidin-1-yl)methanone], the IC50 in assay [1] was 49 nM; in assay [2], more than 10000 nM.

Consider `CN(CC(F)(F)F)C(=O)c1cc2cc(-c3nccc(Nc4ccc(-c5cn[nH]c5)cc4)n3)ccc2[nH]1` [TDI01429, 5-(4-((4-(1H-pyrazol-4-yl)phenyl)amino)pyrimidin-2-yl)-N-methyl-N-(2,2,2-trifluoroethyl)-1H-indole-2-carboxamide], for which the IC50 in assay [1] was 99 nM; in assay [2], more than 10000 nM.

On to `O=C(O)c1cnc(-c2ccc3c(c2)CN(C(=O)C2CC(F)(F)C2)C3)nc1Nc1ccc(-c2cn[nH]c2)cc1` [TDI01567C], for which the IC50 in assay [1] is 29 nM; in assay [2] it was more than 10000 nM.

In the case of `O=C(NCC(F)(F)F)c1cc2ccc(-c3nccc(Nc4ccc(-c5cn[nH]c5)cc4)n3)cc2s1` [TDI01456, 6-(4-((4-(1H-pyrazol-4-yl)phenyl)-amino)-pyrimidin-2-yl)-N-(2,2,2-trifluoroethyl)-benzo[b]-thiophene-2-carboxamide], the IC50 in assay [1] is 15 nM; in assay [2], more than 10000 nM.

Turning to `O=C(C1CC(F)(F)C1)N1Cc2ccc(-c3ncc(F)c(Nc4ccc5[nH]ncc5c4)n3)cc2C1` [TDI01589, (5-(4-((1H-indazol-5-yl)amino)-5-fluoropyrimidin-2-yl)isoindolin-2-yl)(3,3-difluorocyclobutyl)methnone], the IC50 is 39 nM in assay [1] and more than 10000 nM in assay [2].

Regarding `Cn1c(C(=O)N2CCC(C(F)(F)F)C2)cc2ccc(-c3nccc(Nc4ccc(-c5cn[nH]c5)cc4)n3)cc21` (stereo not drawn) [TDI01506, (6-(4-((4-(1H-pyrazol-4-yl)phenyl)amino)pyrimidin-2-yl)-1-methyl-1H-indol-2-yl)(3-(trifluoromethyl)pyrrolidin-1-yl) methanone], the IC50 was 295 nM in assay [1] and 7300 nM in assay [2].

Regarding `O=C(C1CC(F)(F)C1)N1Cc2ccc(-c3nccc(Nc4ccc(-c5cn[nH]c5)cn4)n3)cc2C1` [TDI01979, (5-(4-((5-(1H-pyrazol-4-yl)pyridin-2-yl)amino)pyrimidin-2-yl)isoindolin-2-yl)(3,3-difluorocyclobutyl)methanone], the results for the IC50 in assay [1] and in assay [2] were 137 nM and more than 10000 nM, respectively.

Turning to `N#CC1CCN(C(=O)c2cc3ccc(-c4nccc(Nc5ccc(-c6cn[nH]c6)cc5)n4)cc3[nH]2)C1` (stereo not drawn) [TDI01448, 1-(6-(4-((4-(1H-pyrazol-4-yl)phenyl)amino)pyrimidin-2-yl)-1H-indole-2-carbonyl)pyrrolidine-3-carbonitrile], the IC50 in assay [1] was found to be 13 nM; in assay [2] it was 3000 nM.

Turning to `CN1CCN(C2CCN(C(=O)c3cc4ccc(-c5nccc(Nc6ccc7[nH]ncc7c6)n5)cc4[nH]3)CC2)CC1` [TDI01319, (6-(4-((1H-indazol-5-yl)amino)-pyrimidin-2-yl)-1H-indol-2-yl)(4-(4-methyl-piperazin-1-yl)piperidin-1-yl)methanone], the half-inhibitory concentration (IC50) in assay [1] was 258 nM; in assay [2], more than 10000 nM.

For the compound `O=C(OC1CC2(CNC2)C1)N1Cc2ccc(-c3nccc(Nc4ccc(-c5cn[nH]c5)cc4)n3)cc2C1` [TDI01634, 2-azaspiro[3.3]heptan 6-yl 5-(4-((4-(1H-pyrazol-4-yl)phenyl)amino)pyrimidin-2-yl)isoindoline-2-carboxylate], the half-inhibitory concentration (IC50) turned out to be 16 nM in assay [1] and 2040 nM in assay [2].

For `c1cnc(-c2cc3ccc(-c4nccc(Nc5ccc(-c6cn[nH]c6)cc5)n4)cc3[nH]2)nc1` [TDI01870, N-(4-(1H-pyrazol-4-yl)phenyl)-2-(2-(pyrimidin-2-yl)-1H-indol-6-yl)pyrimidin-4-amine], the figures for the IC50 in assay [1] and in assay [2] were 46 nM and more than 10000 nM, respectively.

With `COc1cnc(-c2ccc3cc(C(=O)Nc4ccnnc4)[nH]c3c2)nc1Nc1ccc2[nH]ncc2c1` [TDI01813, 6-(4-((1H-indazol-5-yl)amino)-5-methoxy-pyrimidin-2-yl)-N-(pyridazin-4-yl)-1H-indole-2-carboxamide], the IC50 in assay [1] is 90 nM; in assay [2], more than 10000 nM.

As to `COCc1cnc(-c2ccc3cc(C(=O)N4CC(F)(F)C4)n(C)c3c2)nc1Nc1ccc(-c2cn[nH]c2)cc1` [TDI01668, (6-(4-((4-(1H-pyrazol-4-yl)phenyl)amino)-5-(methoxymethyl)pyrimidin-2-yl)-1-methyl-1H-indol-2-yl)(3,3-difluoroazetidin-1-yl)methanone], the half-maximal inhibitory concentration (IC50) in assay [1] is 42 nM; in assay [2] it was more than 10000 nM.
